The text below walks through data of ChEMBL document CHEMBL3585263, “Novel Octahydropyrrolo[3,4-c]pyrroles Are Selective Orexin-2 Antagonists: SAR Leading to a Clinical Candidate” (J Med Chem, 2015).

As a reminder, the Ki is the dissociation constant of the complex between target and ligand, obtained from inhibition or displacement. Low readings indicate tighter binding, high ones weaker binding. For orientation: IC50 means the point on the concentration scale where inhibition reaches its midpoint. Lower therefore signals greater potency.

The target in test [1] is T1, Orexin receptor type 2 (Homo sapiens, UniProt O43614).
T1 sequence (O43614 whole entry): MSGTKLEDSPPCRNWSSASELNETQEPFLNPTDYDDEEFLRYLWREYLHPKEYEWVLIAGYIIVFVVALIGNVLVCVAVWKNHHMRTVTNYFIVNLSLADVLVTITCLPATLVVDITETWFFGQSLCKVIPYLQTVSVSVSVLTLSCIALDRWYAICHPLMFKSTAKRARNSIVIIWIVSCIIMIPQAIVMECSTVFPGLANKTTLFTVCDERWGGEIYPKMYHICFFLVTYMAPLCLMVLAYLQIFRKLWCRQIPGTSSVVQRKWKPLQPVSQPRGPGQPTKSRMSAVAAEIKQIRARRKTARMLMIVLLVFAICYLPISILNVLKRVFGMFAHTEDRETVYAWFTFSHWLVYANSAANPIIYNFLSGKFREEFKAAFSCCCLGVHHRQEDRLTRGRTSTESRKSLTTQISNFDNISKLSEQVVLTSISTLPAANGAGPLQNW
In words: Binding affinity to human OX2 receptor.

The target in test [2] is T2, Orexin/Hypocretin receptor type 1 (Homo sapiens, UniProt O43613).
T2 sequence (O43613 whole entry): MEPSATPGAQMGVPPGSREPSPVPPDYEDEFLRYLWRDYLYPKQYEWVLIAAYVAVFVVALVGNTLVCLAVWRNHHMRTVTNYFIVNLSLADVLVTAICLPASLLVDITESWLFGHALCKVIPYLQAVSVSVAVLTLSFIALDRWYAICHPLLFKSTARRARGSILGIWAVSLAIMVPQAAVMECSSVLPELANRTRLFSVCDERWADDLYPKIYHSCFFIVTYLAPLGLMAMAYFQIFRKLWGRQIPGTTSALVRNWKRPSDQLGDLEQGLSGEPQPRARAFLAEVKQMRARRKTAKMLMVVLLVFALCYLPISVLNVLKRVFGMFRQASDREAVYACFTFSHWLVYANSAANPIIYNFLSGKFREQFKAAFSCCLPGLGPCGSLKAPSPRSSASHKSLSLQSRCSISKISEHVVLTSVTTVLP
Kind of test: Binding affinity to human OX1 receptor.

Test [3] deals with Voltage-gated inwardly rectifying potassium channel KCNH2 (Homo sapiens, UniProt Q12809). In words: Inhibition of [3H]-astemizole binding to human ERG expressed in HEK293 cells.
Chain of Voltage-gated inwardly rectifying potassium channel KCNH2 (Q12809 whole entry): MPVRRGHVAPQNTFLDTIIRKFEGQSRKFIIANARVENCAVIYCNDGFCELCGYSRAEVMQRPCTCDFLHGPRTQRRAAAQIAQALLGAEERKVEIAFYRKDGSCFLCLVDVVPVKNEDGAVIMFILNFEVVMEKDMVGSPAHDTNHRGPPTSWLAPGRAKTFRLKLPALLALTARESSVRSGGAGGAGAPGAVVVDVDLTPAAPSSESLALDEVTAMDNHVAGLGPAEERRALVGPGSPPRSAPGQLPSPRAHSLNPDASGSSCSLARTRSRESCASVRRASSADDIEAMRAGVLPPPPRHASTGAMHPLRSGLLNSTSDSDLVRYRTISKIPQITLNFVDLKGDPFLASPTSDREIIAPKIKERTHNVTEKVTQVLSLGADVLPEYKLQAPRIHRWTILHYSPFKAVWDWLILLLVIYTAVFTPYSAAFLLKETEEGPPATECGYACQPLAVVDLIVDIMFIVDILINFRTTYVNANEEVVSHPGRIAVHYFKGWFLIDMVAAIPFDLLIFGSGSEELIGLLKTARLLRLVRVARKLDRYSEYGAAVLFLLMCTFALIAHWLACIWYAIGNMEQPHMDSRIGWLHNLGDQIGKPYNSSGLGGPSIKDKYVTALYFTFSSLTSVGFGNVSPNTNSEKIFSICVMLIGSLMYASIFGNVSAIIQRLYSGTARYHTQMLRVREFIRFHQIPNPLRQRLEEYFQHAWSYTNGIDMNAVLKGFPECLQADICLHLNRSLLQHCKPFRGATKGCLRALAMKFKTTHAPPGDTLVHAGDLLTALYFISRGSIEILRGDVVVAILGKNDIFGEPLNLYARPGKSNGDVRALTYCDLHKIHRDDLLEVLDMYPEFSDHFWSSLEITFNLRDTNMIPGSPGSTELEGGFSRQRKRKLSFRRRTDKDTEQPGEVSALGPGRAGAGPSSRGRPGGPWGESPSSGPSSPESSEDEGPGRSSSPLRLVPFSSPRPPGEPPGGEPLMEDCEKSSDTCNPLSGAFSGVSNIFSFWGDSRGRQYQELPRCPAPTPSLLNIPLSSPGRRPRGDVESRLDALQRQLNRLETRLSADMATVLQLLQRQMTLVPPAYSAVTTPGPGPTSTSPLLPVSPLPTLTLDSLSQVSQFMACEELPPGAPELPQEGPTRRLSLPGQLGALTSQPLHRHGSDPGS
The target in test [4] is T3, Orexin receptor type 2 (Rattus norvegicus, UniProt P56719).
T3 sequence (P56719 whole entry): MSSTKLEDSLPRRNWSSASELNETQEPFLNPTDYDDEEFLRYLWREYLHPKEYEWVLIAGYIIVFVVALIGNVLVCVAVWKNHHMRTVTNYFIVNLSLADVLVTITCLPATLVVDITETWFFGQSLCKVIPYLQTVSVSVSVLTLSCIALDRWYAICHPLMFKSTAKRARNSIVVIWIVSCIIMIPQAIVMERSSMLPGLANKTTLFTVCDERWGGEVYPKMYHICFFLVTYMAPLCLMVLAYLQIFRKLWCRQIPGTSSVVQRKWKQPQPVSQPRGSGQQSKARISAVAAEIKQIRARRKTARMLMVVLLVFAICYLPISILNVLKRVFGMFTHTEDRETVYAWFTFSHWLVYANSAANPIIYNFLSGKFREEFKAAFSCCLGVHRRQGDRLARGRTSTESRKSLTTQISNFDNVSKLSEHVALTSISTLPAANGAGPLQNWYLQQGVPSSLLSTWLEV
Kind of test: Binding affinity to rat OX2 receptor.

A value given as a limit tells only on which side of the number the result lay.

For `COc1ccc(C(=O)N2C[C@@H]3CN(c4nc5ccc(Cl)cc5s4)C[C@@H]3C2)c(OC)c1`, the figures for the Ki in test [1] and in test [2] were 510 nM and 5300 nM, respectively.

`Cc1cc(C)nc(N2C[C@H]3CN(C(=O)c4cc(F)ccc4-n4nccn4)C[C@H]3C2)n1` came in with an IC50 in test [3] greater than 10000 nM.

For the molecule `O=C(c1ccccc1-c1ccccc1)N1C[C@@H]2CN(c3nccc(-c4ccccc4)n3)C[C@@H]2C1`, the inhibition constant (Ki) in test [1] was determined as 421 nM; in test [2] it was 765 nM.

`COc1ccc(-n2nccn2)c(C(=O)N2C[C@@H]3CN(c4nc(C)cc(C)n4)C[C@@H]3C2)c1`: in test [3], the IC50 worked out at 8100 nM. In addition, the Ki in test [4] stood at 38 nM.

With `COc1ccc(C(=O)N2C[C@@H]3CN(c4nc5ccc(C)cc5s4)C[C@@H]3C2)c(OC)c1`, the Ki was 680 nM in test [1] and greater than 10000 nM in test [2].

As to `Cc1cc(C)nc(N2C[C@H]3CN(C(=O)c4ccccc4-c4cccc(F)c4)C[C@H]3C2)n1`, the figures for the Ki in test [1] and in test [2] were 180 nM and greater than 10000 nM, respectively.

With `O=C(c1ccccc1-c1cccs1)N1C[C@@H]2CN(c3nc4ccc(F)cc4s3)C[C@@H]2C1`, the Ki in test [1] came out at 137 nM; in test [2], 267 nM.

Take `COc1cc(OC)nc(N2C[C@H]3CN(C(=O)c4ccccc4-c4cccs4)C[C@H]3C2)n1`: the Ki turned out to be 41 nM in test [1] and 257 nM in test [2].

Turning to `O=C(c1ccccc1-n1cccn1)N1C[C@@H]2CN(c3cnc4ccccc4n3)C[C@@H]2C1`, the Ki in test [1] was 768 nM; in test [2], greater than 10000 nM.

In the case of `Cc1cc(C)nc(N2C[C@H]3CN(C(=O)c4c(C)cccc4-n4nccn4)C[C@H]3C2)n1`, in test [3], the IC50 was determined as 6900 nM. Moreover, the Ki in test [4] is 12 nM.

In the case of `COc1ccc(C(=O)N2C[C@@H]3CN(c4nc5ccc(OC)cc5s4)C[C@@H]3C2)c(OC)c1`, the Ki in test [1] is 875 nM; in test [2] it was greater than 10000 nM.

As for `O=C(c1ccccc1-c1ccccc1)N1C[C@@H]2CN(c3nc4ccccc4s3)C[C@@H]2C1`, the figures for the Ki in test [1] and in test [2] were 687 nM and 1400 nM, respectively.

In the case of `O=C(c1ccccc1-c1ccccc1)N1C[C@@H]2CN(c3nc4ccc(F)cc4s3)C[C@@H]2C1`, the values for the inhibition constant Ki in test [1] and in test [2] were 294 nM and 925 nM, respectively.

As for `CCOc1ccc2ccccc2c1C(=O)N1C[C@@H]2CN(c3nc(C)cc(C)n3)C[C@@H]2C1`, the results for the Ki in test [1] and in test [2] were 27 nM and 557 nM, respectively.

`O=C(c1ccccc1-c1ccccc1)N1C[C@@H]2CN(c3cnc4ccccc4n3)C[C@@H]2C1`: the Ki in test [1] amounted to 240 nM; in test [2], 1320 nM.

As to `COc1ccnc(N2C[C@H]3CN(C(=O)c4c(C)ccc5ccccc45)C[C@H]3C2)n1`, the Ki in test [1] was 141 nM; in test [2] it was 3300 nM.

On to `COc1ccc(C(=O)N2C[C@@H]3CN(c4nc5ccc(F)cc5s4)C[C@@H]3C2)c(OC)c1`, for which the Ki is 746 nM in test [1] and greater than 10000 nM in test [2].

With `O=C(c1ccccc1-c1cccs1)N1C[C@@H]2CN(c3cnc4ccccc4n3)C[C@@H]2C1`, the Ki in test [1] is 106 nM; in test [2], 623 nM.

On to `Cc1cc(C)nc(N2C[C@H]3CN(C(=O)c4c(C)ccc5ccccc45)C[C@H]3C2)n1`, for which the Ki in test [1] was 51 nM; in test [2], 1800 nM.

For `Cc1ccnc(N2C[C@H]3CN(C(=O)c4ccccc4-c4ccccc4)C[C@H]3C2)n1`, the Ki in test [1] was 899 nM; in test [2] it was greater than 10000 nM.
